In patent US20130203822A1, “COMPOUNDS FOR TREATMENT OF TUMORS BEARING D[…] ONCOPROTEINS” (priority 2010, published 2013):
Structures can show the parent of a compound that is named as a salt.

Legend:
[1] = tested on: CHP134-MYCN#3 neuroblastoma cell clone; assay: WST-1 cell cytotoxicity assay with selected hits at 2 uM; assay type: cell-based, human; settings: MYCN-amplified neuroblastoma cells, 24 or 48 hours
Procedure: a) Cell cytotoxicity was performed by WST1 assay (Roche) following the manufacturer's instruction: 15000 cells were plated in each well of 96-well transparent Spectra Plate (Perkin Elmer) in 150 ul of complete media.
(§1) After adhesion, cells were treated with the selected drugs (Table 1) at 2 uM concentration and incubated at 37° with 5% CO2 and 100% relative humidity for 24 or 48 hours. At the defined endpoint, 15 uL of WST1 reagent were added and after 4 hours incubation at 37° with 5% CO2 and 100% relative humidity, plates were read for absorbance at 450 nm in a Tecan F200 multiplate reader (Tecan).
(§2) Different measurements were needed in order to calculate the percentage growth: time zero (Tz: that represent a measurement of the cell population at the time of drug addition), control growth (C: measures the growth of the cells treated with vehicle only after 24 or 48 hours) and test growth (Ti: that represent a measurement of the cell population after 24 or 48 hours). Percentage growth is calculated as:
[(Ti−Tz)/(C−Tz)]×100 eq. (2)
for concentrations for which Ti>=Tz;
for concentrations for which Ti<Tz.

[2] = tested on: MYCN 3′UTR; assay: luciferase reporter screening and counter-screening in CHP134-MYCN and CHP134-CTRL stable clones; assay type: cell-based, human; settings: 24 h; for dependence of luciferase reporter upregulation on MYCN 3′UTR (counter-screening): 2 uM, CHP134-MYCN#3 versus CHP134-CTRL#19
Procedure: Reporter constructs containing the firefly luciferase reporter gene under the control of the CMV viral promoter and followed by either the whole MYCN 3′UTR (pGL4.26-MYCN3UTR) or the only SV40 poly(A) region (pGL4.26-CTRL) as a control were produced as disclosed above.
The CHP134 neuroblastoma cell line was used to generate stable transfection clones as disclosed in Example 3.
The screening was carried out in the CHP134-MYCN#3 stable clone with the Spectrum Collection small molecule library (MicroSource Discovery) composed of 2000 compounds stored at 10 mM in DMSO: 800 drugs that have been introduced in the US, 200 drugs that are limited in use to Europe and Japan, 580 natural products, 420 compounds with reported biological activities.
The assay was run in triplicates in 96-well plates. CHP134-MYCN stable clone cells were trypsinized, harvested and resuspended in culture medium. Tecan Multichannel arm (MCA96) of a Tecan EVO 200 robot (Tecan) was used to add 150 uL containing 15000 cells to the 96-well white CulturePlate-96 (Perkin Elmer).
After adhesion, the 10 mM compounds were diluted to 75 uM in PBS and immediately pipetted into the 96 wells in order to have a final concentration of 2 uM in the cells. Baseline controls were obtained treating the first column wells with PBS+DMSO at the same final concentration of the samples.
Luciferase activity was assessed using OneGlow Luciferase assay (Promega) according to the manufacturer's method, after 24 h of incubation at 37° with 5% CO2 and 100% relative humidity. Luminescence signal was read on a Tecan F200 multiplate reader (Tecan) integrated with the robot.
The majority of the hits (Table 1) were then checked for reproducibility and cytotoxic activity, the most interesting compounds were also tested for dose-responsiveness. The same hits were subsequently subjected to counter-screening with the stable clone CHP134-CTRL#19 expressing the control pGL4.26-CTRL plasmid, to segregate plasmid promoter-dependent transcriptional control effects.
To verify the specificity of the CPX effect for the MYCN 3′UTR and its clone-independency, the treatment was repeated with the CHP134-MYCN#3 clone and the CHP134-CTRL#19 clones and with two independent others, again stably transfected with the pGL4.26-MYCN3UTR and the pGL4.26-CTRL plasmids (respectively, CHP134-MYCN#1 and the CHP134-CTRL#17 clones).
Treatment with CPX 2 uM and measurement of luciferase activity with the OneGlow luciferase assay after 24 h provided a confirmation of the screening results (FIG. 3).

[3] = humans; deferiprone: iron overload treatment in transfused thalassemia patients; doxorubicin: high dose infusional in tumor bearing patients; cited from earlier work
[4] = rat; cited from earlier work
[5] = tested on: CHP134 cells; assay: Annexin V-FITC / PI apoptosis assay by flow cytometry; assay type: cell-based, human; settings: CHP134, 24 and 48 hr, different concentrations
Procedure: c) Apoptosis assay was performed by flow cytometry. CHP134 cells were seeded 10 cm-dishes at the concentration 1×10^6 cells under standard culture conditions. In three days cells were treated with CPX at different concentration for 24 and 48 hr. The cells were then harvested, washed with cold PBS and processed for apoptosis assay using the Annexin V-FITC Apoptosis Detection Kit I (BD Biosciences) by following the instructions of the manufacturer. Briefly, cells were stained with FITC-Annexin V and PI (Propidium Iodide) in order to allow for the identification of death cells (FITC and PI positive), viable cells (FITC and PI negative) and pre-apoptotic cells (FITC positive and PI negative). Flow cytometric analysis was performed with the BD FACS Canto (BD Biosciences).
The results are shown, in FIG. 6. Numbers indicate the percentage of apoptotic/dead cells (P1) and pre-apoptotic cells (P2) respectively.

[6] = tested on: MYCN protein; assay: immunofluorescence analysis of MYCN expression; assay type: cell-based, human; settings: CHP134 cells, 24 h, different concentration of CPX
Procedure: To verify if the CPX enhancement effects on luciferase activity was accompanied by an increase in MYCN protein levels, an immunofluorescence analysis were performed on CHP134 cells plated in 96-well imaging plates (BD) and treated after adhesion for 24 h at different concentration of CPX. Cells were fixed by paraformaldehyde (PFA) 3.7%, permeabilized with 0.1% Triton X100, incubated with anti-MYCN mouse monoclonal antibody (ab16898, ABCAM) and stained with Alexafluor 488 rabbit anti-mouse secondary antibody.
Images were acquired by Operetta (Perkin Elmer) high content system and analyzed by the Harmony software.
Results represent fluorescence intensity in the nuclear area previously identified by DAPI staining.

[7] = tested on: CHP134 and SiMa neuroblastoma cell lines; assay: WST-1 dose-response cytotoxicity of ciclopirox olamine and piroctone olamine; assay type: cell-based, human; settings: 0.33-100 μM, 48 hours
Procedure: as §1, with “different concentration of CPX ranging from 66 nM to 66” for “the selected drugs (Table 1) at 2”, “for” for “for 24 or”, “ul” for “uL”
as §2, with “after” for “after 24 or”, “hours treatment with CPX).” for “hours). Percentage growth is calculated as:”
Percentage growth is calculated as above by means of eq.s (2) and (3).
In order to understand if compounds of similar molecular structure to that of CPX could be also effective in inducing a cytotoxic activity, we treated two neuroblastoma cell lines, CHP134 and SiMa, with increasing concentrations of both compounds (0.33-1-3.3-10-33-100 μM), and we measured cytotoxicity after 48 hours as detailed before.

| Structure (SMILES) | cytotoxicity [1] | dependence of luciferase reporter upregulation on MYCN 3′UTR (counter-screening) [2] | plasma concentration [3] [µM] | acute lethal dose 50 (LD50) [4] [mg/kg] | also measured |
| --- | --- | --- | --- | --- | --- |
| COc1cccc2c1C(=O)c1c(O)c3c(c(O)c1C2=O)C[C@@](O)(C(C)=O)C[C@@H]3O[C@H]1C[C@H](N)[C@H](O)[C@H](C)O1 [daunorubicin, DAUNORUBICIN] | efficient cytotoxicity | truly dependent on MYCN 3′UTR |  |  |  |
| Cc1c(O)c(=O)ccn1C [deferiprone, 3-hydroxy-1,2-dimethylpyridin-4-one] |  |  | ≥ 250 | 2000 |  |
| Cc1cc(C2CCCCC2)n(O)c(=O)c1 [ciclopirox olamine, CICLOPIROX OLAMINE] | efficient cytotoxicity | truly dependent on MYCN 3′UTR |  | 2350 | effect on cell viability: percentage of apoptotic/dead (P1) and pre-apoptotic (P2) cells [5]: increased percentage of apoptotic/dead cells; MYCN nuclear immunostaining (fluorescence intensity in the nuclear area) [6]: dose-dependent increase; luciferase expression ([2]; CPX 2 uM, clones CHP134-MYCN#3, CHP134-MYCN#1, CHP134-CTRL#19, CHP134-CTRL#17): clone-independent, MYCN 3′UTR specific effect of increased luciferase expression |
| Cc1cc(CC(C)CC(C)(C)C)n(O)c(=O)c1.NCCO (stereo not shown) [piroctone olamine] |  |  |  |  | cytotoxic activity compared with CPX [7]: even stronger activity |
| COc1cccc2c1C(=O)c1c(O)c3c(c(O)c1C2=O)C[C@@](O)(C(=O)CO)C[C@@H]3O[C@H]1C[C@H](N)[C@@H](O)[C@H](C)O1 [epirubicin, EPIRUBICIN HYDROCHLORIDE] | efficient cytotoxicity |  |  |  |  |
| COc1cccc2c1C(=O)c1c(O)c3c(c(O)c1C2=O)C[C@@](O)(C(=O)CO)C[C@@H]3O[C@H]1C[C@H](N)[C@H](O)[C@H](C)O1 [doxorubicin, DOXORUBICIN] | efficient cytotoxicity | truly dependent on MYCN 3′UTR | 0.1 | 10.5 |  |
